Data reported in US5393875A, “Amino acid derivatives having renin inhibiting activity” (Hoffmann-La Roche Inc., priority 1991, dated 1995).

Columns and labels:
[1] = target: T1, renin in human plasma (Homo sapiens, UniProt P00797); assay: Test B: in vitro test with human plasma; format: biochemical; details: pH 6, 3 hours at 37° C., angiotensin I by RIA
T1 construct: The test solution comprises (1) 225 μl of plasma; from tissue; host or cells: human plasma
T1 sequence (P00797 67-406): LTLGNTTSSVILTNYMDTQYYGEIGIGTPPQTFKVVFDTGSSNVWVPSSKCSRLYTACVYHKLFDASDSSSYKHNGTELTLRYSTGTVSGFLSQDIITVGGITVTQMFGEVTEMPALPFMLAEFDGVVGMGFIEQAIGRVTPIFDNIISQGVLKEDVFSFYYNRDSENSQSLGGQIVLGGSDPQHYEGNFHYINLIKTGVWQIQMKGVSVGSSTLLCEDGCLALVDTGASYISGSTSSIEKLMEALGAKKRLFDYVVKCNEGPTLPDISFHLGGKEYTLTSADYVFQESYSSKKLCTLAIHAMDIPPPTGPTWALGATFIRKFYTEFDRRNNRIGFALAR
Experimental: B. In vitro test with human plasma
The test solution comprises (1) 225 μl of plasma, (2) 10 μl of 8-hydroxyquinoline sulphate in water, (3) 12 μl of sodium phosphate buffer (0.1M), pH 7.4, and […] of different concentrations of renin inhibitor in dimethyl sulphoxide. Tho resulting pH value (pH 6) of tho test solution is stable for the duration of the subsequent incubation. The test tubes are then incubated at 37° C. for 3 hours. The enzyme activity is expressed by determining the angiotensin I produced, which is determined using a comercially available radioimmunoassay kit (Clinical Assays, Cambridge, Mass.).
(§1) The following controls are carried out:
MaxP: Maximal production (maximal enzyme activity) in the absence of a renin inhibitor.
MinP: Minimal production (enzyme activity blank) in the presence of a supramaximal concentration of a renin inhibitor.
The MinP is subtracted from the respective angiotensin production in each experiment. These values are converted into percentage inhibition by comparison with the maximal enzyme activity MaxP-MinP. The degree of inhibition is expressed by the IC50 value, i.e. the concentration of inhibitor which reduces the accumulation of angiotensin I by 50%.

[2] = target: T2, human renin (Homo sapiens, UniProt P00797); assay: Test A: in vitro test with pure human renin; format: biochemical; details: human tetradecapeptide substrate, pH 7.4, 3 hours at 37° C., angiotensin I by RIA
T2 sequence (P00797 67-406): T1 sequence (P00797 67-406)
Experimental: A. In vitro test with pure human renin
The test is carried out in Eppendorf test tubes. The incubation mixture consists of (1) 100 μl of human renin in buffer A (0.1M sodium phosphate solution, pH 7.4, containing 0.1% bovine serum albumin, 0.1% sodium azide and 1 mM ethylenediaminetetraacetic acid), sufficient for a renin activity of 2-3 ng of angiotensin I/ml/hr; (2) 145 μl of buffer A: (3) 30 μl of 10 μM human tetradecapeptide renin substrate (hTD) in 10 mM hydrochloric acid: (4) 15 μl of dimethyl sulphoxide with or without inhibitor and (5) 10 μl of a 0.03 molar solution of hydroxyquinoline sulphate in water.
The samples are incubated for three hours at 37° C. and, respectively, 4° C. in triplicate. 2×100 μl samples per experimental test tube are used in order to measure the production of angiotensin I via RIA (standard radioimmunoassay; clinical assay solid phase kit). Cross reactivities of the antibody used in the RIA are: angiotensin I 100%; angiotensin II 0.0013%; hTD (angiotensin I-Val-Ile-His-Ser-OH 0.09%. The production of angiotensin I is determined by the difference between the experiment at 37° C. and that at 4° C.
as §1
(a) Incubation of hTD samples without renin and without inhibitor at 37° C. and 4° C. The difference between these two values gives the base value of the angiotensin I production.
(b) Incubation of hTD samples with renin, but without inhibitor at 37° C. and 4° C. The difference between these values gives the maximal value of angiotensin I production.
In each sample the base value of the angiotensin I production is subtracted from the angiotensin I production which is determined. The difference between the maximal value and the base value gives the value of the maximal substrate hydrolysis (=100% ) by renin.
The results are given as IC50 values which denote that concentration of the inhibitor at which the enzymatic activity is inhibited by 50%. The IC50 values are determined from a linear regression curve from a logit-log plot.

Q: Which IC50 [1] does the source give for COC(=O)[C@H](NC(=O)OC(C)(C)C)C(C)(C)S(=O)(=O)CC(Cc1ccccc1)C(=O)N[C@@H](Cc1c[nH]cn1)C(=O)N[C@@H](CC1CCCCC1)[C@@H](O)[C@@H](O)C1CC1 (single isomer, unassigned) [C, tert-Butyl [(S)-2-[[(S or R)-2-[[(S)-1-[[(1S,2R,3S)-1-(cyclohexylmethyl)-3-cyclopropyl-2,3-dihydroxypropyl]carbamoyl]-2-imidazol-4-ylethyl]carbamoyl]-3-phenylpropyl]sulfonyl]-1-(methoxycarbonyl)-2-methylpropyl]carbamate] here?
A: 0.14 nM

Q: And the IC50 [2]?
A: 0.061 nM

Q: With COCC(=O)OCC(C)(C)S(=O)(=O)CC(Cc1ccccc1)C(=O)N[C@@H](Cc1c[nH]cn1)C(=O)N[C@@H](CC1CCCCC1)[C@@H](O)[C@@H](O)C1CC1 (single isomer, unassigned) [D, 2-[[(S or R)-2-[[(S)-1-[[(1S,2R,3S)-1-(cyclohexylmethyl)-3-cyclopropyl-2,3-dihydroxypropyl]carbamoyl]-2-imidazol-4-ylethyl]carbamoyl]-3-phenylpropyl]sulfonyl]-2-methylpropyl methoxyacetate] as the molecule, how does the IC50 [1] read?
A: < 0.1 nM

Q: What about the IC50 [2] of the same molecule?
A: 0.2 nM

Q: Which results are given for CC(C)(C(=O)N1CCOCC1)S(=O)(=O)C[C@@H](Cc1ccccc1)C(=O)N[C@@H](Cc1c[nH]cn1)C(=O)N[C@@H](CC1CCCCC1)[C@@H](O)[C@@H](O)C1CC1 [A, (S)-N-[(1S,2R,3S)-1-(Cyclohexylmethyl)-3-cyclopropyl-2,3-dihydroxypropyl]-α-[(S)-α-[[[1-(morpholinocarbonyl)-1-methylethyl]sulfonyl]methyl]hydrocinnamamido]imadazole-4-propionamide]?
A: IC50 [1]: 0.1 nM; IC50 [2]: 0.03 nM

Q: Which IC50 [1] does the source give for CC(C)(C(=O)N[C@H]1C(O)O[C@H](CO)[C@@H](O)[C@@H]1O)S(=O)(=O)C[C@@H](Cc1ccccc1)C(=O)N[C@@H](Cc1c[nH]cn1)C(=O)N[C@@H](CC1CCCCC1)[C@@H](O)[C@@H](O)C1CC1 (stereo partly drawn) [B, 2-[2-[[(S)-2-[[(S)-1-[[(1S,2R,3S)-1-(Cyclohexylmethyl)-3-cyclopropyl-2,3-dihydroxypropyl]carbamoyl]-2-imidazol-4-ylethyl]carbamoyl]-3-phenylpropyl]sulfonyl]-2-methylpropionamido]-2-deoxy-D-glucopyranose] here?
A: 0.11 nM

Q: What about the IC50 [2] of the same molecule?
A: 0.3 nM
